Here are results for two compounds from patent publication US7674454B2, “Enzyme-prodrug therapy for prosthetic joint repair” (Innovata Limited, priority 2004, dated 2010).

The conditions of series [1]: Djeha et al, 2001; cited from earlier work.
Series [2] has as its system interface cells. As to the kind of experiment: NTR/CB1954 cell killing in the presence of, or after transient exposure to, contrast medium. The following applies: results not shown. In kind it is cell-based, human. The text has this:
The effect of contrast medium (iotrolan) on HAdV5-transduction of interface cells was investigated with Ad.CMV.LacZ. Transducibility of the cells increases with the concentration of HAdV-5 vector. However, the contrast medium has restraining influence on the transduction efficiency. With higher concentrations of iotrolan, the HAdV-5 vector concentration has less effect on gene transfer efficiency. […] The effect of iotrolan on the transduction is statistically significant (p<0.001). Furthermore, differences between cells from different individuals (n=6) have been observed. To evaluate the effect of contrast medium on cell killing by NTR/CB1954, the previously described experiment for the efficiency of cell killing was repeated in the presence of contrast medium. […] This incompatibility may be due to the presence of iodine within the contrast media. Screening of all available contrast media may allow determination of a contrast medium compatible with viral transduction.
The influence of transient exposure to contrast medium on the transduction of interface cells was investigated. Interface cells were exposed to contrast medium for 0 to 120 minutes and the period between washing away of the contrast medium and performing the NTR/CB1954 cell killing approach was varied. […]

Series [3] has as its system interface cells. As to the kind of experiment: Transduction and cell killing assay: CTL102 infection, then CB1954, WST metabolic activity readout. Format: cell-based, human. As for the experimental part:
Cell viability was then determined using a metabolic activity assay.
For all experiments described, interface cells were used. Interface tissue was removed from the periprosthetic space during revision-surgery by an orthopedic surgeon and collected in sterile phosphate buffered saline (PBS). Connective tissue and fat were removed thoroughly and the interface tissue was digested for at least two hours at 37° C. using collagenase 1A (1 mg/ml; Sigma, St Louis, Mo., USA). Cells were then harvested by filtering the tissue/collagenase substance through a 200 μm filter (NPBI, Emmer-Compascuum, The Netherlands). The cells were cultured in 75 cm^2 flasks (Cellstar, Greiner, Alphen aan de Rijn, The Netherlands) with Iscove's modified Dulbecco's medium (IMDM; Biowitthaker, Verviers, Belgium), supplemented with glutamax (GibcoBRL, Paisley, UK), penicillin and streptomycin (Boehringer Mannheim, Germany), and 10% fetal calf serum (FCS; GibcoBRL, Paisley, UK) at 37° C. and 5% CO2.
Before each experiment interface cells were detached from the flasks using 0.25% trypsin (GibcoBRL, Paisley, UK). The cells were counted in a bürker counter and death cells were excluded by trypan blue. Cells were seeded in a 96 wells-plate (flat bottom) at a density of 5,000 cells per well. Cells were incubated overnight to allow attachment to the bottom. […]
Hereafter the absorbance at 415 nm was measured.

A further series concerns loosened hip prosthesis. The series can be described thus: Phase-1 clinical study: intra-articular vector, prodrug, then cement injection. The following applies: Patient 1, twelve hours after prodrug injection.
Series [4] has as its system interface cells. As to the kind of experiment: Effect of contrast medium on HAdV-5 transduction of interface cells. The following applies: contrast medium concentration of 50%, 4 hours; p<0.001. In kind it is cell-based, human. As for the experimental part:
Interface cells were seeded in 96-wells plates. After overnight incubation cells were infected with Ad.CMV.LacZ (concentrations of 0, 25, 100, and 200 pfu/cell) in IMDM/20% FCS, 50 μl per well. Fifty μl Iotrolan (Isovist) in 0.9% NaCl was added in concentrations of 0, 25, 50, and 100%. (When diluted in the culture medium these concentrations decreased to 0, 12.5, 25, and 50%.) Four hours after infection, the cells were washed twice with IMDM and incubated for the rest of the day in IMDM/10% FCS at 37° C. and 5% CO2. The Ad.CMV.LacZ transduced cells were cultured for three days after removal of the vector and contrast medium. Subsequently, the cells were fixed and stained for β-galactasidase activity. The transduction rate was assessed as described above.

Series [5] has as its system interface cells. As to the kind of experiment: Effect of contrast medium on interface cells, WST-1 viability. In kind it is cell-based, human. Conditions: 4 hours exposure, 0-50% contrast medium, viability after 3 more days; p=0.563. As for the experimental part:
Interface cells were seeded in 96-wells plates. Into each well 50 μl of IMDM/20% FCS and 50 μl of a solution containing contrast medium and 0.9% NaCl in various concentrations (0, 12.5, 25, and 50% contrast medium) were added. The contrast medium used was the low-osmolarity, nonionic dimer iotrolan (Isovist; Schering, Berlin, Germany). After four hours of exposure to the contrast medium, the cells were washed twice and incubated in IMDM/10% FCS. The cells were cultured for three more days, changing the culture medium every day. On day four, cell viability was determined with the WST-1 cell viability assay kit (Roche, Mannheim, Germany) according to the manufacturers protocol.
(Tetrazolium dyes change colour on reduction, which living cells bring about.)

Description for loosened hip prosthesis: After 48 hours, to allow transduction of target cells and expression of the nitroreductase transgene, CB1954 (at a dosage of 24 mg m^−2) is injected intra-articularly.

For `NC(=O)c1cc(N2CC2)c([N+](=O)[O-])cc1[N+](=O)[O-]` [CB1954, 5-(aziridin-1-yl)-2,4-dinitrobenzamide], the tolerability in man entry in series [1] is given as “well-tolerated in man”. Besides, the “cell killing by NTR/CB1954” value in the series on interface cells [2] is recorded as “cells are not killed”. The “killing of interface cells” value with interface cells [3] (200 virus pfu/cell and CB1954 50 μM, cells from two revision surgery patients) came to 90%. In the series with interface cells [3] (CTL102 0-200 IU/cell, CB1954 0-50 μM, cells from both patients), the “dose dependence of killing” value is “virus and CB1954-dose dependent killing”. The nausea with loosened hip prosthesis was found to be 1 WHO grade.
On to `CN(C(=O)CC(=O)N(C)c1c(I)c(C(=O)NC(CO)C(O)CO)c(I)c(C(=O)NC(CO)C(O)CO)c1I)c1c(I)c(C(=O)NC(CO)C(O)CO)c(I)c(C(=O)NC(CO)C(O)CO)c1I` (stereo not shown) [iotrolan], for which, in the series with interface cells [4], the “transduction of interface cells by Ad.CMV.LacZ” value is reported as “none of the cells were transduced”. The “effect on viability of interface cells” value in the series with interface cells [5] is given as “does not affect the viability of the cells at any concentration”.
